Test results published in PMC11477621, “Design, Synthesis, and Biological Evaluation of HDAC Inhibitors Containing Natural Product-Inspired N-Linked 2-Acetylpyrrole Cap” (Molecules, 2024).

How the values were obtained:
HDAC1 = target: T1, HDAC1 (Homo sapiens, UniProt Q13547); test: HDAC inhibition assay (HTRF), HDAC1; format: biochemical; details: for IC50: read-out: IC50 ± SD, HDAC1;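 as to all read-outs here: HTRF detection with streptavidin-XL665 plus Eu(K)-labelled anti-H3K9me0 antibody, two independent runs with duplicate wells per concentration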
T1 construct: purchased BPS #50001
Method: (§2) Then, SA-XL665 (#610SAXLG, Cisbio, Bedford, MA, USA) and anti-H3K9me0-Eu(K) (#61KB0KAD, Cisbio, USA) were added. […] The IC50 value of the compounds was calculated using GraphPad 7.0 software. Each set of experiments was independently repeated twice, with two replicate wells per concentration each time.

HDAC6 = target: T2, HDAC6 (Homo sapiens, UniProt Q9UBN7); test: HDAC inhibition assay (HTRF), HDAC6; format: biochemical; details: for IC50: read-out: IC50 ± SD, HDAC6
T2 construct: purchased BPS #50006
T2 sequence (Q9UBN7 1-1215): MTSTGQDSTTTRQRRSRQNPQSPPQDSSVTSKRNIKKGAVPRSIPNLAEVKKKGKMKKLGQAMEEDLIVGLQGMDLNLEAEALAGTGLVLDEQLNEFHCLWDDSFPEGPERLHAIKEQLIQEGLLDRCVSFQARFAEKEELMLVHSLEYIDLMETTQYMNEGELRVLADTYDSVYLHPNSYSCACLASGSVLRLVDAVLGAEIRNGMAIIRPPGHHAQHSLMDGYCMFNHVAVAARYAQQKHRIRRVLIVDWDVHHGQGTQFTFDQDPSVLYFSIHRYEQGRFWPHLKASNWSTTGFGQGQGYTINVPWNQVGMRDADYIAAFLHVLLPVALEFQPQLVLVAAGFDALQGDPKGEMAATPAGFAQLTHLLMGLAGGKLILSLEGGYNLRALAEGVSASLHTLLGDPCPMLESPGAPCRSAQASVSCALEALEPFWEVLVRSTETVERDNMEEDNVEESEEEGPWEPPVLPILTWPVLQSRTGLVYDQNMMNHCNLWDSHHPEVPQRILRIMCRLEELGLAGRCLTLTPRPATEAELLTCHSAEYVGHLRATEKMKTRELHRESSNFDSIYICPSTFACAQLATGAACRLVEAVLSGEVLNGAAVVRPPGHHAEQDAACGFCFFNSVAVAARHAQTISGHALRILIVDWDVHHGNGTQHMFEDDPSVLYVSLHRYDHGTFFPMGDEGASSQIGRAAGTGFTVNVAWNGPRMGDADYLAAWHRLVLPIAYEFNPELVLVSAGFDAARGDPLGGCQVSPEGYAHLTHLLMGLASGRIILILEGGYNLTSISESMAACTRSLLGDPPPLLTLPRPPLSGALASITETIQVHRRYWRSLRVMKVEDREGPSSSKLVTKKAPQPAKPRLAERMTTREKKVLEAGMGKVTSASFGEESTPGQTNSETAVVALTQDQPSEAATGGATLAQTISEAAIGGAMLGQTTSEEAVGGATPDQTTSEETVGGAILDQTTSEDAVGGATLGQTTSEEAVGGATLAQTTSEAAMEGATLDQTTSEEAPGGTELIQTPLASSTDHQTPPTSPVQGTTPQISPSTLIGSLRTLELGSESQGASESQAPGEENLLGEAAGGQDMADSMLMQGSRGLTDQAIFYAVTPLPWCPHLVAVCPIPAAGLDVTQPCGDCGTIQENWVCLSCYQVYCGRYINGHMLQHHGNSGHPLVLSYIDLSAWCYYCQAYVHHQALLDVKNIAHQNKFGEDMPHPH
Method: as §2

HDAC3 = HDAC3 (Homo sapiens, UniProt O15379); test: HDAC inhibition assay (HTRF), HDAC3;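 also: HTRF detection with streptavidin-XL665 and a Eu cryptate-labelled antibody against unmodified H3K9, two independent runs with duplicate wells at each concentration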
Method: as §2

[1] = test system: HCT-116 (human colon cancer cell line); test: CCK8 cell viability assay, HCT-116; format: cell-based; details: 72 h, read-out: Proliferation inhibition IC50 ± SD, HCT-116
Method: (§1) The CCK8 (#AC11L054, Life ilab, Shanghai, China) method was used to detect the cells’ proliferation. Cells were seeded into a 96-well culture plate at an appropriate density. […] IC50 values were estimated using the four-parameter method. Each set of experiments was repeated independently three times with three replicate wells per concentration each time.

[2] = test system: HL-60 (human leukemia cell line); test: CCK8 cell viability assay, HL-60; format: cell-based; details: 72 h, read-out: Proliferation inhibition IC50 ± SD, HL-60
Method: as §1

[3] = test system: RPMI-8226 (human myeloma cell line); test: CCK8 cell viability assay, RPMI-8226; format: cell-based; details: 72 h, read-out: Proliferation inhibition IC50 ± SD, RPMI-8226
Method: as §1

[4] = read-out: (%) Inhibition of HDAC3

HDAC3, sequence (O15379 whole entry): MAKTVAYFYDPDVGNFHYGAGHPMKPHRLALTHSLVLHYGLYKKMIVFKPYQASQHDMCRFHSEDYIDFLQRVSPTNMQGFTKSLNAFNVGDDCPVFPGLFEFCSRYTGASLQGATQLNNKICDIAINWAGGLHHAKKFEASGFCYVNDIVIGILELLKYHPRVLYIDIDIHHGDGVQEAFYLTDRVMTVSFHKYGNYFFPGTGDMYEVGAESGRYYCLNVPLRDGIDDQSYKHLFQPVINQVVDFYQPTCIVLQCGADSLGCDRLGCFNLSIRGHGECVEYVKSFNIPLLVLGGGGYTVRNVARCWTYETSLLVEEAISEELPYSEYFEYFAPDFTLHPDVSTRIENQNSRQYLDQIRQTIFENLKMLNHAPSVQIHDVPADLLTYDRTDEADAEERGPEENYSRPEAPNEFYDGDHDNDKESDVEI
HDAC3, sequence (Q9Y618 395-489 partner limits assumed): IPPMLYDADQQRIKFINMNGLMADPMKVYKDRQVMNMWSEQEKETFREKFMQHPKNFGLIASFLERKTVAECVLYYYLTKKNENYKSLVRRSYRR
T1 sequence (Q13547 whole entry): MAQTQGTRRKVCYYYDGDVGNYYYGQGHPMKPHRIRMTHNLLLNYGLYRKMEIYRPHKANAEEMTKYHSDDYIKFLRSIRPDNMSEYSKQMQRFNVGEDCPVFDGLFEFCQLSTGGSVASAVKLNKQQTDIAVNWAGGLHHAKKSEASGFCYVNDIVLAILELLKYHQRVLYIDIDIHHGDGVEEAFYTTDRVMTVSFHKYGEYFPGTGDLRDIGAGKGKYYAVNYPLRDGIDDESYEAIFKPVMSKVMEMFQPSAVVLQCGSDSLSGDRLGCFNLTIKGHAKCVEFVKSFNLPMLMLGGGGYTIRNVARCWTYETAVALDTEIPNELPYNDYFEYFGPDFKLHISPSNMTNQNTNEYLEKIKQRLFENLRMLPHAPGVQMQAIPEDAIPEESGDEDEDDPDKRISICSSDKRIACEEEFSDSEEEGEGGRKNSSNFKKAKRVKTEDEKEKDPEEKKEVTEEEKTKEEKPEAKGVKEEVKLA

| Compound | IC50 (HDAC1) [µM] | IC50 (HDAC6) [µM] | IC50 (HDAC3) [µM] | inhibition at 1 µM (HDAC1; at 1 μM) [%] | inhibition at 1 µM (HDAC6; at 1 μM) [%] | IC50 [1] [µM] | IC50 [2] [µM] | IC50 [3] [µM] | inhibition at 1 µM (HDAC3; [4]) [%] | inhibition at 10 µM (HDAC1; at 10 μM) [%] | inhibition at 10 µM (HDAC6; at 10 μM) [%] | inhibition at 10 µM (HDAC3; [4]) [%] |
| --- | --- | --- | --- | --- | --- | --- | --- | --- | --- | --- | --- | --- |
| CC(=O)c1cccn1Cc1cn(CCc2ccc(C(=O)Nc3ccc(F)cc3N)cc2)nn1 [Compound 19b, 4-(2-(4-((2-Acetyl-1H-pyrrol-1-yl)methyl)-1H-1,2,3-triazol-1-yl)ethyl)-N-(2-amino-4-fluorophenyl)benzamide] | > 10 | > 10 | > 10 | – | – | – | – | – | – | – | – | – |
| O=C(CCCCCCn1ccc2ccc(F)cc21)NO [Compound 5h, 7-(6-Fluoro-1H-indol-1-yl)-N-hydroxyheptanamide] | – | – | – | 96.5 | 92.4 | > 30 | > 30 | > 30 | 93.2 | – | – | – |
| CC(=O)c1cccn1CCCCCC(=O)NO [Compound 3c, 6-(2-Acetyl-1H-pyrrol-1-yl)-N-hydroxyhexanamide] | 0.118 ± 0.0308 | 0.0823 ± 0.0152 | 0.138 ± 0.0186 | – | – | – | – | – | – | – | – | – |
| O=C(CCCCCCn1cccc1C(=O)c1ccccc1)NO [Compound 5e, 7-(2-Benzoyl-1H-pyrrol-1-yl)-N-hydroxyheptanamide] | 0.0137 ± 0.00439 | 0.00974 ± 0.00637 | 0.00308 ± 0.00097 | – | – | 19.8 ± 8.32 | 7.5 ± 1.55 | 17.9 ± 6.51 | – | – | – | – |
| CC(=O)c1cccn1CCc1ccc(C(=O)NO)cc1 [Compound 11, 4-(2-(2-Acetyl-1H-pyrrol-1-yl)ethyl)-N-hydroxybenzamide] | – | – | – | – | – | 17.1 ± 8.69 | 28 ± 0.56 | 11.7 ± 1.75 | – | 77.6 | 89.5 | 79.9 |
| O=C(CCCCCCn1ccc2cc(F)ccc21)NO [Compound 5i, 7-(5-Fluoro-1H-indol-1-yl)-N-hydroxyheptanamide] | 0.00448 ± 0.00243 | ≤ 0.0017 | 0.00182 ± 0.00078 | – | – | > 30 | > 30 | > 30 | – | – | – | – |
| CC(=O)c1cccn1CCCCCCC(=O)NO [Compound 3d, 7-(2-Acetyl-1H-pyrrol-1-yl)-N-hydroxyheptanamide] | 0.0519 ± 0.00673 | 0.0142 ± 0.00124 | 0.04553 ± 0.00023 | – | – | > 30 | > 30 | > 30 | – | – | – | – |
| CC(=O)c1cccn1Cc1cn(CCc2ccc(C(=O)Nc3ccc(Cl)cc3N)cc2)nn1 [Compound 19c, 4-(2-(4-((2-Acetyl-1H-pyrrol-1-yl)methyl)-1H-1,2,3-triazol-1-yl)ethyl)-N-(2-amino-4-chlorophenyl)benzamide] | > 10 | > 10 | > 10 | – | – | – | – | – | – | – | – | – |
| CCC(=O)c1cccn1CCCCCCC(=O)NO [Compound 5b, N-hydroxy-7-(2-propionyl-1H-pyrrol-1-yl)heptanamide] | 0.0542 ± 0.00874 | 0.00767 ± 0.00106 | 0.0582 ± 0.00464 | – | – | 23 ± 7.03 | 12.9 ± 0.75 | 19.9 ± 7.71 | – | – | – | – |
| CC(=O)c1cccn1Cc1cn(CCc2ccc(C(=O)Nc3cc(F)c(F)cc3N)cc2)nn1 [Compound 19d, 4-(2-(4-((2-Acetyl-1H-pyrrol-1-yl)methyl)-1H-1,2,3-triazol-1-yl)ethyl)-N-(2-amino-4,5-difluorophenyl)benzamide] | > 10 | > 10 | > 10 | – | – | – | – | – | – | – | – | – |
| CC(=O)c1cccn1CCCCC(=O)NO [Compound 3b, 5-(2-Acetyl-1H-pyrrol-1-yl)-N-hydroxypentanamide] | 0.426 ± 0.0138 | > 10 | > 10 | – | – | – | – | – | – | – | – | – |
| CC(=O)c1cccn1CCCC(=O)NO [Compound 3a, 4-(2-Acetyl-1H-pyrrol-1-yl)-N-hydroxybutanamide] | > 10 | > 10 | > 10 | – | – | – | – | – | – | – | – | – |
| CC(=O)c1cccn1CCCCCCCC(=O)NO [Compound 3e, 8-(2-Acetyl-1H-pyrrol-1-yl)-N-hydroxyoctanamide] | 0.0824 ± 0.0312 | 0.0155 ± 0.0029 | 0.085 ± 0.00121 | – | – | – | – | – | – | – | – | – |
| COc1ccc(NC(=O)c2ccc(CCn3cc(Cn4cccc4C(C)=O)nn3)cc2)c(N)c1 [Compound 19e, 4-(2-(4-((2-Acetyl-1H-pyrrol-1-yl)methyl)-1H-1,2,3-triazol-1-yl)ethyl)-N-(2-amino-4-methoxyphenyl)benzamide] | > 10 | > 10 | > 10 | – | – | – | – | – | – | – | – | – |
